# Measurements as given in patent US20250381179A1, “CHROMAN-BASED COMPOUNDS FOR TREATING CANCER” (priority 2024, published 2025).
# Test: Phase 1 study: safety and tolerability (TEAEs, NCI CTCAE v5.0)
# Details: 100 mg QD (N = 4)
# Method: The study employed an open-label, 3+3 design, with the option of adding backfill patients to each cohort cleared and deemed safe. […] Tumor responses were assessed every 2 cycles using RECIST v1.1 criteria. […] The study also involves an ongoing dose escalation study where participants receive 100 mg, 200 mg, 300 mg, 400 mg, and 600 mg once daily (QD) dose levels.
# Safety was assessed through the analysis of the reported incidence of treatment-emergent AEs. Treatment-emergent AEs are those with an onset on or after the initiation of therapy and will be graded according to NCI CTCAE Version 5.0. Other safety endpoints, including laboratory results, vital signs, and ECG findings, were summarized for all patients in the Safety set.
compound,measurement,value
"O=C1CC[C@H](N2Cc3cc(N4CCN(CC5CCN(c6ccc([C@@H]7c8ccc(O)cc8OC[C@@H]7c7ccccc7)cc6F)CC5)CC4)ccc3C2=O)C(=O)N1 [compound (1-g), (S)-3-(5-(4-((1-(2-fluoro-4-((3S,4R)-7-hydroxy-3-phenylchroman-4-yl)phenyl)piperidin-4-yl)methyl)piperazin-1-yl)-1-oxoisoindolin-2-yl)piperidine-2,6-dione]",Patients with Any Compound (1-g) related TEAE,2 (50.0) n (%)
same,Patients with Any TEAE,4 (100) n (%)
same,TEAE: Abdominal Distension,0 n (%)
same,TEAE: Abdominal Pain,1 (25.0) n (%)
same,TEAE: Acute Kidney Injury,0 n (%)
same,TEAE: Adrenal Insufficiency,0 n (%)
same,TEAE: Alopecia,0 n (%)
same,TEAE: Anaemia,0 n (%)
same,TEAE: Anxiety,0 n (%)
same,TEAE: Arthralgia,0 n (%)
same,TEAE: Axillary Vein Thrombosis,0 n (%)
same,TEAE: Back Pain,0 n (%)
same,TEAE: Basal Cell Carcinoma,1 (25.0) n (%)
same,TEAE: Breast Pain,0 n (%)
same,TEAE: Confusional State,1 (25.0) n (%)
same,TEAE: Constipation,0 n (%)
same,TEAE: Cough,0 n (%)
same,TEAE: Covid-19 Pneumonia,1 (25.0) n (%)
same,TEAE: Dehydration,3 (75.0) n (%)
same,TEAE: Diarrhoea,1 (25.0) n (%)
same,TEAE: Dizziness,0 n (%)
same,TEAE: Dysgeusia,0 n (%)
same,TEAE: Dyspepsia,1 (25.0) n (%)
same,TEAE: Dyspnoea,0 n (%)
same,TEAE: Dysuria,0 n (%)
same,TEAE: Eructation,0 n (%)
same,TEAE: Fall,1 (25.0) n (%)
same,TEAE: Fatigue,1 (25.0) n (%)
same,TEAE: Flatulence,0 n (%)
same,TEAE: Fracture,0 n (%)
same,TEAE: Fungal Infection,0 n (%)
same,TEAE: Haematoma,0 n (%)
same,TEAE: Hot Flush,1 (25.0) n (%)
same,TEAE: Hyperglycaemia,0 n (%)
same,TEAE: Hyperhidrosis,1 (25.0) n (%)
same,TEAE: Hypokalaemia,0 n (%)
same,TEAE: Hypotension,0 n (%)
same,TEAE: Influenza Like Illness,0 n (%)
same,TEAE: Insomnia,1 (25.0) n (%)
same,TEAE: Lower Respiratory Tract Congestion,0 n (%)
same,TEAE: Lymphocyte Count Decreased,0 n (%)
same,TEAE: Muscle Spasm,0 n (%)
same,TEAE: Muscular Weakness,0 n (%)
same,TEAE: Musculoskeletal Stiffness,0 n (%)
same,TEAE: Nail Disorder,0 n (%)
same,TEAE: Nasal Congestion,0 n (%)
same,TEAE: Nausea,1 (25.0) n (%)
same,TEAE: Neutrophil Count Decreased,1 (25.0) n (%)
same,TEAE: Oedema Peripheral,0 n (%)
same,TEAE: Ophthalmic Migraine,0 n (%)
same,TEAE: Oral Pain,0 n (%)
same,TEAE: Pain In Extremity,0 n (%)
same,TEAE: Pharyngitis,0 n (%)
same,TEAE: Platelet Count Decreased,0 n (%)
same,TEAE: Pleural Effusion,0 n (%)
same,TEAE: Pneumonia,1 (25.0) n (%)
same,TEAE: Productive Cough,0 n (%)
same,TEAE: Rash Maculo-Papular,1 (25.0) n (%)
same,TEAE: Rhinitis Allergic,0 n (%)
same,TEAE: Rib Fracture,1 (25.0) n (%)
same,TEAE: Seizure,0 n (%)
same,TEAE: Sepsis,0 n (%)
same,TEAE: Tremor,1 (25.0) n (%)
same,TEAE: Upper Respiratory Tract Infection,1 (25.0) n (%)
same,TEAE: Urinary Tract Infection,0 n (%)
same,TEAE: Vaginal Haemorrhage,0 n (%)
same,TEAE: Vomiting,0 n (%)
same,related TEAE: Alopecia,0 n (%)
same,related TEAE: Arthralgia,0 n (%)
same,related TEAE: Constipation,0 n (%)
same,related TEAE: Diarrhea,1 (25.0) n (%)
same,related TEAE: Dysgeusia,0 n (%)
same,related TEAE: Eructation,0 n (%)
